Measurements published in ChEMBL document CHEMBL4376834, “Discovery of 4H-Chromen-4-one Derivatives as a New Class of Selective Rho Kinase (ROCK) Inhibitors, which Showed Potent Activity in ex Vivo Diabetic Retinopathy Models” (J Med Chem, 2019).

What was measured:
[1] = target: Calcium/calmodulin-dependent protein kinase type 1B (Homo sapiens, UniProt Q6P2M8); assay: Inhibition of recombinant full length human CaMK1beta using KKLRRTLSFAEP as substrate incubated for 40 mins in presence of [gamma-33ATP] by radiometric scintillation counting analysis
Calcium/calmodulin-dependent protein kinase type 1B, sequence (Q6P2M8 whole entry, the tested form may be a part): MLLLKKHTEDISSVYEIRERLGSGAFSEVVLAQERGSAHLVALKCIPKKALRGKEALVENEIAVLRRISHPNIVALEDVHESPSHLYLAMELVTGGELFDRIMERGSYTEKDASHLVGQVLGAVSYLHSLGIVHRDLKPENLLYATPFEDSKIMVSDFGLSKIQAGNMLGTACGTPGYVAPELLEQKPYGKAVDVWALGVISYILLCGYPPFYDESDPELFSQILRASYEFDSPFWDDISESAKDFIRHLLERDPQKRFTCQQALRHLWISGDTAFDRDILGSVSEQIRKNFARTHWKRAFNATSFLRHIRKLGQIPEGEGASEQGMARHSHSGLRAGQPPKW

[2] = target: Serine/threonine-protein kinase MRCK beta (Homo sapiens, UniProt Q9Y5S2); assay: Inhibition of recombinant human MRCKbeta (1 to 473 residues) using KKRNRTLTV as substrate incubated for 40 mins in presence of [gamma-33ATP by radiometric scintillation counting analysis
[3] = target: Casein kinase I isoform delta (Homo sapiens, UniProt P48730); assay: Inhibition of recombinant human CK1delta (1 to 294 residues) using KRRRALS(p)VAS as substrate incubated for 40 mins in presence of [gamma-33ATP] by radiometric scintillation counting analysis
[4] = target: Death-associated protein kinase 2 (Homo sapiens, UniProt Q9UIK4); assay: Inhibition of recombinant full length human DAPK2 using Calmodulin as substrate incubated 40 mins in presence of [gamma-33ATP] by radiometric scintillation counting analysis
[5] = target: Calcium/calmodulin-dependent protein kinase type II subunit delta (Homo sapiens, UniProt Q13557); assay: Inhibition of recombinant full length human CaMK2delta using calmodulin as substrate incubated for 40 mins in presence of [gamma-33ATP] by radiometric scintillation counting analysis
[6] = target: Serine/threonine-protein kinase Nek1 (Homo sapiens, UniProt Q96PY6); assay: Inhibition of recombinant human NEK1 (1 to 505 residues) using RLGRDKYKTLRQI as substrate measured after 40 mins in presence of [gamma33P]ATP by radiometric scintillation counting analysis
Serine/threonine-protein kinase Nek1, sequence (Q96PY6 whole entry, the tested form may be a part): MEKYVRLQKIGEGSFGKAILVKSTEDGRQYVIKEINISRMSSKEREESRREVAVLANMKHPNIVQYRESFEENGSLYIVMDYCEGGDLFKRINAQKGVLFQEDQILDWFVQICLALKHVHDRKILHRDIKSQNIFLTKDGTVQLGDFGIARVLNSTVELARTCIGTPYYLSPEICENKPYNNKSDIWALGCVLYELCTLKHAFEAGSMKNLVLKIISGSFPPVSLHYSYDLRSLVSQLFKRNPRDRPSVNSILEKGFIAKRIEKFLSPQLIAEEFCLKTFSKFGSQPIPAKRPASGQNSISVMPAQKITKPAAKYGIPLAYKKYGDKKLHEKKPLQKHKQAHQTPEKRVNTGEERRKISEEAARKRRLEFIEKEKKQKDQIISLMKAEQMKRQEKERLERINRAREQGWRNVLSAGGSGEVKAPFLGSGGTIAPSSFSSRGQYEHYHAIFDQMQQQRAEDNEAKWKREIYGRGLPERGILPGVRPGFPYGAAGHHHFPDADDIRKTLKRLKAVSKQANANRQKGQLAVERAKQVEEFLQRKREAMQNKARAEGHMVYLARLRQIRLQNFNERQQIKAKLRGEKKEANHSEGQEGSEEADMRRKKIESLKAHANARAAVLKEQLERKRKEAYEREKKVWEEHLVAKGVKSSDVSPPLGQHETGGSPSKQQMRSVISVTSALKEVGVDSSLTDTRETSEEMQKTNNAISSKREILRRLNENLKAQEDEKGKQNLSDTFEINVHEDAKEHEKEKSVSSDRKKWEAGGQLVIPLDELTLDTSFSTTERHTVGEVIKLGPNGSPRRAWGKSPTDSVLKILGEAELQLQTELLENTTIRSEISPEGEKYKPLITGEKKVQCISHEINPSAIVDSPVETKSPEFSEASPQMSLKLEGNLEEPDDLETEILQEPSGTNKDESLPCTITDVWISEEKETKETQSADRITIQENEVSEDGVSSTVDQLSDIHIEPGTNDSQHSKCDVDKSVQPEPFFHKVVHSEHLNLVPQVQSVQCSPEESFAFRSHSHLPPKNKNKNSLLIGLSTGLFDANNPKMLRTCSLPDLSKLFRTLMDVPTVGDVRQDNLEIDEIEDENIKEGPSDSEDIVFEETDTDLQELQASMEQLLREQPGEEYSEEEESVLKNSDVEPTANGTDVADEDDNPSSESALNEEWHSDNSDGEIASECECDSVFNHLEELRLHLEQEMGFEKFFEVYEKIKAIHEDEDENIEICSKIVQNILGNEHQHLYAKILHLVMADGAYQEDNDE

[7] = target: Casein kinase 2 (Homo sapiens, UniProt P67870+P68400+P19784+Q8NEV1); assay: Inhibition of recombinant human CK2 in presence of [gamma-33ATP] by radiometric scintillation counting analysis; type: protein assay
[8] = target: Serine/threonine-protein kinase tousled-like 1 (Homo sapiens, UniProt Q9UKI8); assay: Inhibition of recombinant full-length human TLK1 using casein as substrate incubated for 40 mins in presence of [gamma33P]ATP by radiometric scintillation counting analysis
[9] = target: Ephrin type-B receptor 3 (Homo sapiens, UniProt P54753); assay: Inhibition of recombinant human EphB3 (599 to 920 residues) using poly(Glu, Tyr) 4:1 as substrate after 40 mins in presence of [gamma-33ATP] by radiometric scintillation counting analysis
Ephrin type-B receptor 3, sequence (P54753 whole entry, the tested form may be a part): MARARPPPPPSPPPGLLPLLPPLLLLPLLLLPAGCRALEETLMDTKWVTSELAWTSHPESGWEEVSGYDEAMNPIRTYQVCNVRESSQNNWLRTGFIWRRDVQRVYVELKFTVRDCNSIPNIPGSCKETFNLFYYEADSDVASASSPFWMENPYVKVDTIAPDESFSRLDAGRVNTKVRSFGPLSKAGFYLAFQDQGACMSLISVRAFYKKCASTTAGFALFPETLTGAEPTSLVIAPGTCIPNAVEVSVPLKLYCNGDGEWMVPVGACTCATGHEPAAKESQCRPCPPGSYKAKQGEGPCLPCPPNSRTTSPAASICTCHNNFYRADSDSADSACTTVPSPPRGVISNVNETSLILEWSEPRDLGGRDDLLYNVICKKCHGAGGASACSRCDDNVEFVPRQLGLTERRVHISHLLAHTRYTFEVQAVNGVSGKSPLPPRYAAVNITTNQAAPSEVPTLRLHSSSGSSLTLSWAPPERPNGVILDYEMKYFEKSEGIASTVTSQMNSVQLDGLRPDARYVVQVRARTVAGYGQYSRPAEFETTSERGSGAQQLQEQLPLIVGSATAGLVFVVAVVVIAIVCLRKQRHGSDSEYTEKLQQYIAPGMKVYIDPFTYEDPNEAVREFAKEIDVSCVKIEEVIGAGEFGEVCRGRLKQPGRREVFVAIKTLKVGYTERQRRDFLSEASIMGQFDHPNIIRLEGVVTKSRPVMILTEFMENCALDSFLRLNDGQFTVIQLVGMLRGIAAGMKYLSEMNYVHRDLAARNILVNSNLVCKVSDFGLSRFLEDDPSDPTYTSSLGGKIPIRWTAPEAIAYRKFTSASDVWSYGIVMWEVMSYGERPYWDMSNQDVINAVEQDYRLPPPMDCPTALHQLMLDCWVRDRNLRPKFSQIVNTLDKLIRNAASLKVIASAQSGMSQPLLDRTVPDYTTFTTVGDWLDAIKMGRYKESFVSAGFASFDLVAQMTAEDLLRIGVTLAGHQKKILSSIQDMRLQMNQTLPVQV

[10] = target: Insulin-like growth factor 1 receptor (Homo sapiens, UniProt P08069); assay: Inhibition of human recombinant activated IGF1R (959 to end residues) using KKKSPGEYVNIEF as substrate after 40 mins by [gamma-33ATP] by radiometric scintillation counting analysis
[11] = Intrinsic clearance in rat liver microsomes measured upto 45 mins in presence of NADPH by LC-MS analysis; type: ADME, Microsome; details: read-out: CLH
[12] = target: Protein kinase C zeta type (Homo sapiens, UniProt Q05513); assay: Inhibition of recombinant human PKCzeta (2 to end residues) using ERMRPRKRQGSVRR as substrate incubated for 40 mins in presence of [gamma33P]ATP by radiometric scintillation counting analysis
[13] = target: 3-phosphoinositide-dependent protein kinase 1 (Homo sapiens, UniProt O15530); assay: Inhibition of recombinant human PDK1 (52 to end residues) using KTFCGTPEYLAPE as substrate incubated for 40 mins in presence of [gamma33P]ATP by radiometric scintillation counting analysis
3-phosphoinositide-dependent protein kinase 1, sequence (O15530 whole entry): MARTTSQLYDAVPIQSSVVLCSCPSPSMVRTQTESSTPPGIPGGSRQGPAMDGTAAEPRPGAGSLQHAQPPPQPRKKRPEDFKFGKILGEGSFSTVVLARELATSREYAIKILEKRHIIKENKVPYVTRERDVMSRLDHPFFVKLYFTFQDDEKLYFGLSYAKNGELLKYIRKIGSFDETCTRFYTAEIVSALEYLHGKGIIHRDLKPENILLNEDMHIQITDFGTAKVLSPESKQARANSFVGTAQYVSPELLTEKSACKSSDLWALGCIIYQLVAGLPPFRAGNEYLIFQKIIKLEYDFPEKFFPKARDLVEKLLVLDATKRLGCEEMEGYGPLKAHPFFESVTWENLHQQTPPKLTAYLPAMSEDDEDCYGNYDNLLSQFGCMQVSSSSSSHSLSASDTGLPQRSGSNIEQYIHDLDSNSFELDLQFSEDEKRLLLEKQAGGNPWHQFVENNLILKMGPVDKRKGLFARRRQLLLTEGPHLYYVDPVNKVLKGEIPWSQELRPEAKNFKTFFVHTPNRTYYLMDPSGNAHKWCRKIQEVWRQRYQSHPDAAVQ

[14] = target: Calcium/calmodulin-dependent protein kinase type 1G (Homo sapiens, UniProt Q96NX5); assay: Inhibition of recombinant full length human CaMK1gamma using KKLRRTLSFAEPG as substrate incubated for 40 mins in presence of [gamma-33ATP] by radiometric scintillation counting analysis
Calcium/calmodulin-dependent protein kinase type 1G, sequence (Q96NX5 whole entry): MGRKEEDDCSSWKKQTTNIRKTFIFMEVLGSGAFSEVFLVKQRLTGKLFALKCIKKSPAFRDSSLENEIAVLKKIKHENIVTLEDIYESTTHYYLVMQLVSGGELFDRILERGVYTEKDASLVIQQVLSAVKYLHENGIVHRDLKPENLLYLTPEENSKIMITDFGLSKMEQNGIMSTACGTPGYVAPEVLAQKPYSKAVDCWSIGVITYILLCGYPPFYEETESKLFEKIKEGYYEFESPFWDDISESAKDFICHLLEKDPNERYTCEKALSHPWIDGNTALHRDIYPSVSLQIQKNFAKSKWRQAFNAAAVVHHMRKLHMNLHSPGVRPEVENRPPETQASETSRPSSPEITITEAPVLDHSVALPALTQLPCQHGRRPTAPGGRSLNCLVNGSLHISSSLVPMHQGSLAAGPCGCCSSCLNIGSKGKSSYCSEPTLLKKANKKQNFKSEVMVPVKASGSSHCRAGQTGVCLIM

[15] = target: CDK18/Cyclin Y (Homo sapiens, UniProt Q07002+Q8ND76, T166M); assay: Inhibition of recombinant full length human cyclinY/CDK18 T166M mutant using YRRAAVPPSPSLS as substrate measured after 40 mins in presence of [gamma33P]ATP by radiometric scintillation counting analysis; type: protein-complex assay
[16] = target: Serine/threonine-protein kinase Nek6 (Homo sapiens, UniProt Q9HC98); assay: Inhibition of recombinant human NEK6 (2 to end residues) using FLAKSFGSPNRAYKK as substrate measured after 40 mins in presence of [gamma33P]ATP by radiometric scintillation counting analysis
[17] = target: NT-3 growth factor receptor (Homo sapiens, UniProt Q16288); assay: Inhibition of recombinant human TRKC (510 to end residues) using GEEPLYWSFPAKK as substrate incubated for 40 mins in presence of [gamma33P]ATP by radiometric scintillation counting analysis
[18] = target: Serine/threonine-protein kinase D1 (Homo sapiens, UniProt Q15139); assay: Inhibition of recombinant full-length human PKCmu R135A mutant using KKLNRTLSVA as substrate incubated for 40 mins in presence of [gamma33P]ATP by radiometric scintillation counting analysis
[19] = target: MAP kinase-activated protein kinase 3 (Homo sapiens, UniProt Q16644); assay: Inhibition of recombinant human MAPKAPK3 (2 to end residues) using KKLNRTLSVA as substrate incubated for 40 mins in presence of [gamma-33ATP by radiometric scintillation counting analysis
[20] = target: Serine/threonine-protein kinase B-raf (Homo sapiens, UniProt P15056); assay: Inhibition of recombinant full length human B-Raf (416 to end residues) using myelin basic protein substrate incubated for 40 mins in presence of [gamma-33ATP] by radiometric scintillation counting analysis
[21] = target: Protein kinase C beta type (Homo sapiens, UniProt P05771); assay: Inhibition of recombinant human PKCbeta2 (2 to end residues) using histone H1 as substrate incubated for 40 mins in presence of [gamma33P]ATP by radiometric scintillation counting analysis
Protein kinase C beta type, sequence (P05771 whole entry): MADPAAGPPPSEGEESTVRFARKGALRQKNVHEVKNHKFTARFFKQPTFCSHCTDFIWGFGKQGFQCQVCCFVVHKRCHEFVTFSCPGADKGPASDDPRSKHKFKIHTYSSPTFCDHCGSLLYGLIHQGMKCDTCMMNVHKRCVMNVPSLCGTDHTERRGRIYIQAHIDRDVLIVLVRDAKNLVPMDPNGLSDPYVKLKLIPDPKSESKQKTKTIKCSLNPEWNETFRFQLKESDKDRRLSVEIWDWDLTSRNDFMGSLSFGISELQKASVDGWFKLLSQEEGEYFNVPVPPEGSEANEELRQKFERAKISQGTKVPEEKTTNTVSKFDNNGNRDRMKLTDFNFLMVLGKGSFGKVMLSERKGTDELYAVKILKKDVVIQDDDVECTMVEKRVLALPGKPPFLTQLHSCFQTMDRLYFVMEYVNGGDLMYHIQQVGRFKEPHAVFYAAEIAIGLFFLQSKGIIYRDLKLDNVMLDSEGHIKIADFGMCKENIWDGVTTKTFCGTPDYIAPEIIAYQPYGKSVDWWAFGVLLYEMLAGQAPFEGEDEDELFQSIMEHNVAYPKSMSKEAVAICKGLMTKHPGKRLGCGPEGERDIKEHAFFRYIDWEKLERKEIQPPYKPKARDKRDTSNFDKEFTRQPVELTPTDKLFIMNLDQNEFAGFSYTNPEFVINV

[22] = target: Macrophage colony-stimulating factor 1 receptor (Homo sapiens, UniProt P07333); assay: Inhibition of recombinant human FMS (538 to end residues) using KKKSPGEYVNIEF as substrate after 40 mins in presence of [gamma-33ATP] by radiometric scintillation counting analysis
[23] = target: Focal adhesion kinase 1 (Homo sapiens, UniProt Q05397); assay: Inhibition of recombinant human FAK (411 to 686 residues) using EEEEYEEEEEEYY as substrate after 40 mins in presence of [gamma-33ATP] by radiometric scintillation counting analysis
[24] = target: Protein kinase C gamma type (Homo sapiens, UniProt P05129); assay: Inhibition of recombinant full-length human PKCgamma using histone H1 as substrate incubated for 40 mins in presence of [gamma33P]ATP by radiometric scintillation counting analysis
[25] = target: PAS domain-containing serine/threonine-protein kinase (Homo sapiens, UniProt Q96RG2); assay: Inhibition of recombinant human PASK (995 to end residues) using KKLNRTLSFAEPG as substrate measured after 40 mins in presence of [gamma33P]ATP by radiometric scintillation counting analysis
[26] = target: Mitogen-activated protein kinase kinase kinase 9 (Homo sapiens, UniProt P80192); assay: Inhibition of recombinant human MLK1 (134 to 414 residues) using casein as substrate incubated for 40 mins in presence of [gamma-33ATP by radiometric scintillation counting analysis

CN(C)c1ccc(C(=O)Nc2cccc(NC(=O)COc3ccc4c(=O)ccoc4c3)c2)cc1
IC50 [1]: > 10 µM
IC50 [2]: > 10 µM
IC50 [3]: > 10 µM
IC50 [4]: > 10 µM
IC50 [5]: > 10 µM
IC50 [6]: > 10 µM
IC50 [7]: > 10 µM
IC50 [8]: > 10 µM
IC50 [9]: > 10 µM
IC50 [10]: > 10 µM
CLint scaled [11]: 2260 mL/min/kg
IC50 [12]: > 10 µM
IC50 [13]: > 10 µM
IC50 [14]: > 10 µM
IC50 [15]: > 10 µM
IC50 [16]: > 10 µM
IC50 [17]: > 10 µM
IC50 [18]: > 10 µM
IC50 [19]: > 10 µM
IC50 [20]: > 10 µM
IC50 [21]: > 10 µM
IC50 [22]: > 10 µM
IC50 [23]: > 10 µM
IC50 [24]: > 10 µM
IC50 [25]: > 10 µM
IC50 [26]: > 10 µM
